{"source": "ChEMBL document CHEMBL4619708", "about": "“Synthesis and biological evaluation of isoliquiritigenin derivatives as a neuroprotective agent against glutamate mediated neurotoxicity in HT22 cells” (2020)", "key": {"[1]": {"test_system": "HT-22", "experiment": "Neuroprotection against glutamate-induced oxidative stress in mouse HT22 cells assessed as increase in cell viability at 3 to 6 uM pretreated with glutamate for 24 hrs followed by compound addition by calcein AM and PI staining based assay", "format": "functional"}, "[2]": {"test_system": "HT-22", "experiment": "Neuroprotection against glutamate-induced oxidative stress in mouse HT22 cells assessed as increase in cell viability pretreated with glutamate for 24 hrs followed by compound addition by calcein AM and PI staining based assay", "format": "functional"}, "[3]": {"test_system": "HT-22", "experiment": "Neuroprotection against glutamate-induced oxidative stress in mouse HT22 cells assessed as reduction in phosphorylated JNK protein level at 100 uM by Western blot analysis", "format": "functional, cell-based"}, "[4]": {"test_system": "HT-22", "experiment": "Neuroprotection against glutamate-induced oxidative stress in mouse HT22 cells assessed as reduction in Ca2+ influx pretreated with glutamate for 8 hrs followed by compound addition by Fluo3-AM staining based fluorescent microscopic method relative to control", "format": "functional", "design": "scale not given: the % may be the effect or the level left"}, "[5]": {"test_system": "HT-22", "experiment": "Neuroprotection against glutamate-induced oxidative stress in mouse HT22 cells assessed as reduction in phosphorylated ERK protein level at 100 uM by Western blot analysis", "format": "functional, cell-based"}, "[6]": {"test_system": "HT-22", "experiment": "Neuroprotection against glutamate-induced oxidative stress in mouse HT22 cells assessed as increase in bcl2 protein level at 100 uM by Western blot analysis", "format": "functional, cell-based"}, "[7]": {"test_system": "HT-22", "experiment": "Neuroprotection against glutamate-induced oxidative stress in mouse HT22 cells assessed as decrease in translocation of AIF to nucleus at 100 uM by Western blot analysis", "format": "functional, cell-based"}, "[8]": {"test_system": "HT-22", "experiment": "Neuroprotection against glutamate-induced oxidative stress in mouse HT22 cells assessed as reduction in Ca2+ influx pretreated with glutamate for 8 hrs followed by compound addition by Fluo3-AM staining based fluorescent microscopic method", "format": "functional, cell-based"}, "[9]": {"test_system": "HT-22", "experiment": "Neuroprotection against glutamate-induced oxidative stress in mouse HT22 cells assessed as reduction in bax protein level at 100 uM by Western blot analysis", "format": "functional, cell-based"}, "[10]": {"test_system": "HT-22", "experiment": "Neuroprotection against glutamate-induced oxidative stress in mouse HT22 cells assessed as reduction in cellular ROS level by DCFDA staining based FACS analysis", "format": "functional, cell-based"}, "[11]": {"test_system": "HT-22", "experiment": "Neuroprotection against glutamate-induced oxidative stress in mouse HT22 cells assessed as reduction in phosphorylated p38 protein level at 100 uM by Western blot analysis", "format": "functional, cell-based"}, "[12]": {"test_system": "HT-22", "experiment": "Neuroprotection against glutamate-induced oxidative stress in mouse HT22 cells assessed as increase in cell viability by MTT assay", "format": "functional, cell-based"}, "[13]": {"test_system": "HT-22", "experiment": "Neuroprotective activity in mouse HT22 cells assessed as apoptotic or dead cells by annexin V and PI staining based assay (reference value: 2.58%)", "format": "functional"}, "[14]": {"test_system": "HT-22", "experiment": "Neuroprotection against glutamate-induced oxidative stress in mouse HT22 cells assessed as apoptotic or dead cells pretreated with glutamate for 8 hrs followed by compound addition by annexin V and PI staining based assay (reference value: 2.58%)", "format": "functional"}, "[15]": {"test_system": "HT-22", "experiment": "Neuroprotection against glutamate-induced oxidative stress in mouse HT22 cells assessed as increase in cell viability at 100 uM pretreated with glutamate for 24 hrs followed by compound addition by calcein AM and PI staining based assay", "format": "functional"}, "[16]": {"test_system": "HT-22", "experiment": "Neuroprotection against glutamate-induced oxidative stress in mouse HT22 cells assessed as increase in cell viability at 50 to 100 uM pretreated with glutamate for 24 hrs followed by compound addition by calcein AM and PI staining based assay", "format": "functional"}}, "note": "The source made the active and inactive calls. No cut-off for these calls is given here.", "data": [{"smiles": "COc1cc(Br)c(/C=C/C(=O)c2ccc(O)cc2O)cc1OC", "values": [{"measurement": "Activity", "setting": "[1]", "result": "Active"}, {"measurement": "Activity", "setting": "[2]", "result": "inactive"}]}, {"smiles": "O=C(/C=C/c1ccc(-c2ccccc2)cc1)c1ccc(O)cc1O", "values": [{"measurement": "Activity", "setting": "[2]", "result": "inactive"}]}, {"smiles": "CCn1c2ccccc2c2cc(/C=C/C(=O)c3ccc(O)cc3O)ccc21", "values": [{"measurement": "Activity", "setting": "[2]", "result": "inactive"}]}, {"smiles": "COc1ccc(/C=C/C(=O)c2ccc(O)cc2O)cc1OC", "values": [{"measurement": "Activity", "setting": "[2]", "result": "inactive"}]}, {"smiles": "CC(=O)N[C@@H](CS)C(=O)O", "values": [{"measurement": "Activity", "setting": "[2]", "result": "inactive"}]}, {"smiles": "O=C(/C=C/c1ccc(O)c(O)c1)c1ccc(O)cc1O", "values": [{"measurement": "Activity", "setting": "[2]", "result": "inactive"}]}, {"smiles": "COc1cc(/C=C/C(=O)c2ccc(O)cc2O)ccc1O", "values": [{"measurement": "Activity", "setting": "[2]", "result": "inactive"}]}, {"smiles": "O=C(/C=C/c1ccc(Cl)cc1)c1ccc(O)cc1O", "values": [{"measurement": "Activity", "setting": "[2]", "result": "inactive"}]}, {"smiles": "COc1cc(/C=C/C(=O)c2ccc(O)cc2O)cc(OC)c1OC", "values": [{"measurement": "Activity", "setting": "[2]", "result": "inactive"}]}, {"smiles": "O=C(/C=C/c1cccc(O)c1)c1ccc(O)cc1O", "values": [{"measurement": "Activity", "setting": "[2]", "result": "inactive"}]}, {"smiles": "COc1cc(/C=C/C(=O)c2ccc(O)cc2O)cc(OC)c1Br", "values": [{"measurement": "Activity", "setting": "[2]", "result": "inactive"}]}, {"smiles": "O=C(/C=C/c1ccc2ccccc2c1)c1ccc(O)cc1O", "values": [{"measurement": "Activity", "setting": "[2]", "result": "inactive"}]}, {"smiles": "CN(C)c1ccc(/C=C/C(=O)c2ccc(O)cc2O)cc1", "values": [{"measurement": "Activity", "setting": "[3]", "result": "Active"}, {"measurement": "Activity", "setting": "[4]", "result": 50, "unit": "%"}, {"measurement": "Activity", "setting": "[5]", "result": "Active"}, {"measurement": "Activity", "setting": "[6]", "result": "Active"}, {"measurement": "Activity", "setting": "[7]", "result": "Active"}, {"measurement": "Activity", "setting": "[8]", "result": "Active"}, {"measurement": "Activity", "setting": "[9]", "result": "Active"}, {"measurement": "Activity", "setting": "[10]", "result": "Active"}, {"measurement": "Activity", "setting": "[11]", "result": "Active"}, {"measurement": "Activity", "setting": "[12]", "result": "Active"}, {"measurement": "Activity", "setting": "[13]", "result": 6.01, "unit": "%"}, {"measurement": "Activity", "setting": "[2]", "result": "Active"}, {"measurement": "Activity", "setting": "[14]", "result": 6.4, "unit": "%"}, {"measurement": "Activity", "setting": "[15]", "result": "Active"}]}, {"smiles": "COc1cccc(/C=C/C(=O)c2ccc(O)cc2O)c1", "values": [{"measurement": "Activity", "setting": "[2]", "result": "inactive"}]}, {"smiles": "COc1ccc(/C=C/C(=O)c2ccc(O)cc2O)cc1", "values": [{"measurement": "Activity", "setting": "[2]", "result": "inactive"}]}, {"smiles": "O=C(/C=C/c1ccc2[nH]ccc2c1)c1ccc(O)cc1O", "values": [{"measurement": "Activity", "setting": "[2]", "result": "Active"}]}, {"smiles": "O=C(/C=C/c1ccc(O)cc1)c1ccc(O)cc1O", "values": [{"measurement": "Activity", "setting": "[16]", "result": "inactive"}, {"measurement": "Activity", "setting": "[2]", "result": "inactive"}]}, {"smiles": "O=C(/C=C/c1ccc(C(F)(F)F)cc1)c1ccc(O)cc1O", "values": [{"measurement": "Activity", "setting": "[2]", "result": "inactive"}]}, {"smiles": "O=C(/C=C/c1ccccc1)c1ccc(O)cc1O", "values": [{"measurement": "Activity", "setting": "[2]", "result": "inactive"}]}]}
